Tests used:
[1] = tested on: H1299 lung tumor cell; test: cell culture-based proliferation assay, H1299; details: Homo sapiens, NCI-H1299, read-out: IC50 of H1299 tumor cell growth
[2] = biological target: EGFR (Homo sapiens, UniProt P00533); test: EGFR kinase activity, fluorescence-based coupled-enzyme assay; assay type: biochemical
[3] = biological target: human Ether-a-go-go Related Gene (hERG) K+ channel (Homo sapiens, UniProt Q12809); test: hERG K+ channel binding / blockage; details: 6 µM of compound
Chain of human Ether-a-go-go Related Gene (hERG) K+ channel (Q12809 whole entry): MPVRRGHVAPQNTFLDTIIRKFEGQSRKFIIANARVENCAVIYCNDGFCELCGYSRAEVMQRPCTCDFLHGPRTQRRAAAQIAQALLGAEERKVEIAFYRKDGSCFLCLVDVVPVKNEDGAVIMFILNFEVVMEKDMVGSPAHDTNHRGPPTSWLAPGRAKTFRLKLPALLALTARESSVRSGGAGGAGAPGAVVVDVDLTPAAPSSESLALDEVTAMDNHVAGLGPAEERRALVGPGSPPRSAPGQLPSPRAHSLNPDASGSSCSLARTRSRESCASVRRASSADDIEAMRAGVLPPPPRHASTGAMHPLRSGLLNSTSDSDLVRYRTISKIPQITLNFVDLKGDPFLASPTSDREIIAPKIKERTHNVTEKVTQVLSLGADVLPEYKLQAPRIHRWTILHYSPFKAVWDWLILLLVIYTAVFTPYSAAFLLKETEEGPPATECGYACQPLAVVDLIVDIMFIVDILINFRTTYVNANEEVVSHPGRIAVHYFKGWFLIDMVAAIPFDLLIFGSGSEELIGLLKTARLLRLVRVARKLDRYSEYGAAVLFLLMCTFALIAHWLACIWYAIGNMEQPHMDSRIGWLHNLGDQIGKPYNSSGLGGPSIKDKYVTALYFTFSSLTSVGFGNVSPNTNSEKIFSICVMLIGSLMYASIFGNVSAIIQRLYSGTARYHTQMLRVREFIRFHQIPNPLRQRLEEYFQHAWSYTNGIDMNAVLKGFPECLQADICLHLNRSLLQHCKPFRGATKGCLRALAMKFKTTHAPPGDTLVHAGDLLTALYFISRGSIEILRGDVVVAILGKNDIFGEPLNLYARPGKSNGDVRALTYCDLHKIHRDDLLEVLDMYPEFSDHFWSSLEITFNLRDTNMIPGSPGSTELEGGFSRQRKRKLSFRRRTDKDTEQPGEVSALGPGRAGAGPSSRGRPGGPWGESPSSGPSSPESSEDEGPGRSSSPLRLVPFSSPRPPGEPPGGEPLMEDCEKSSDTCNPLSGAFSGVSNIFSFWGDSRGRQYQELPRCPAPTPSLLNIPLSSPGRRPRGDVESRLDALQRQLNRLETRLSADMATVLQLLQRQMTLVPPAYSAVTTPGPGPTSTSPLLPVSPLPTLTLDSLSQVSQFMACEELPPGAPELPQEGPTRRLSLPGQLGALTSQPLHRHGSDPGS

[4] = tested on: breast, ovarian and lymphatic leukemia; details: cited from earlier work
[5] = biological target: CYP2C9 (Homo sapiens, UniProt P11712); test: cytochrome p450 CYP2C9 inhibition; details: 6 µM of compound
Chain of CYP2C9 (P11712 whole entry): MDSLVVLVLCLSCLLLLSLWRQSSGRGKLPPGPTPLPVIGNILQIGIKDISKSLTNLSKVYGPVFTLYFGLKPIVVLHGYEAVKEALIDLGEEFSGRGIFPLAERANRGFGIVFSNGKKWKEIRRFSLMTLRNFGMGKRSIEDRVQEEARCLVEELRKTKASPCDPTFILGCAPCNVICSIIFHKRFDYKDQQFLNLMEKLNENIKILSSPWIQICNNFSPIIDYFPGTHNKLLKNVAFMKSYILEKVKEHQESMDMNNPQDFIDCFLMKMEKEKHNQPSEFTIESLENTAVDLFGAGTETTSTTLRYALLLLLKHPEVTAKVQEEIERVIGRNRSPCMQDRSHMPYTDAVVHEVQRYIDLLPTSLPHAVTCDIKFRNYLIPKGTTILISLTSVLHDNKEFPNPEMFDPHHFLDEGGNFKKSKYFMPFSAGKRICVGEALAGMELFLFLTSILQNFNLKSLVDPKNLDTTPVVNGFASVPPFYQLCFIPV

[6] = tested on: H460 lung tumor cell; test: cell culture-based proliferation assay, H460; details: Homo sapiens, NCI-H460, read-out: IC50 of H460 tumor cell growth

Chain of EGFR (P00533 25-1210): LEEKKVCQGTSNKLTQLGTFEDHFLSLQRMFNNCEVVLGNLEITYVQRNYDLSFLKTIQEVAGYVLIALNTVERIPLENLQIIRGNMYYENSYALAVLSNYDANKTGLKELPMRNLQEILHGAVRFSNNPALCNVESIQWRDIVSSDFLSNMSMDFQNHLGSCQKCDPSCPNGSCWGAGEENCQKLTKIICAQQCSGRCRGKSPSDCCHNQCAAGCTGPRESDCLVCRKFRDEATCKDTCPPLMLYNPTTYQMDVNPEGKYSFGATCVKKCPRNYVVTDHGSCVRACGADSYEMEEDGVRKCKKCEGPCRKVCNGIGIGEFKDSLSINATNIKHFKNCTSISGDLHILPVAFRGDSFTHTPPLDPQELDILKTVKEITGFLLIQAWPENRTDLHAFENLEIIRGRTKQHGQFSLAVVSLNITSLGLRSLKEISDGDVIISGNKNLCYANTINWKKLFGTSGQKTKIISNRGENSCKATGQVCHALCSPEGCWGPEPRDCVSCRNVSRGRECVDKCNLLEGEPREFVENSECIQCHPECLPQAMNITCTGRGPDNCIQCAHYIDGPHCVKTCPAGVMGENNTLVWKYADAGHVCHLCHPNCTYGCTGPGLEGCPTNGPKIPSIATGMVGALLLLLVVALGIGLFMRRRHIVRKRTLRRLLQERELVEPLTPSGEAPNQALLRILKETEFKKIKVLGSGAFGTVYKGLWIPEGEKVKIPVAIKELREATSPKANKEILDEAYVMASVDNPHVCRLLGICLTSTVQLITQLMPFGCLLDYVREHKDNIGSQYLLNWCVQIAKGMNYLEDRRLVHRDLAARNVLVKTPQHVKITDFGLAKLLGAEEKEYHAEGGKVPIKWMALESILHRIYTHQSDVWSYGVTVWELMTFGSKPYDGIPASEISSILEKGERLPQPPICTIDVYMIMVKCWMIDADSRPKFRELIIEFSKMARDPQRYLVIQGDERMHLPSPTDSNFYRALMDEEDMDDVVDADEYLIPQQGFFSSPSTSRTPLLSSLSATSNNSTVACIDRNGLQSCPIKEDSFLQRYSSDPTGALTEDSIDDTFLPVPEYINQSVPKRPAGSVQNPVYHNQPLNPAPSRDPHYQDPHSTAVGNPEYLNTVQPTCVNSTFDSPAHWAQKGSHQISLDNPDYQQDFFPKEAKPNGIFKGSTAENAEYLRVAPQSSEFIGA

IC50 [6] [µM]	Structure (SMILES)	IC50 [1] [µM]	IC50 [2] [µM]	hERG K+ channel blockage (in words) [3]	efficacy in breast, ovarian and lymphatic leukemia [4]	inhibition of CYP2C9 (in words) [5]
–	C[C@H]1Oc2cc3c(-c4c(O)cc(O)c5c(O)c6c(cc45)O[C@H](C)[C@@H](C)C6=O)c(O)cc(O)c3c(O)c2C(=O)[C@@H]1C [Compound 12, Chaetochromin A]	~1	0.25	significant blockage	shown efficacy	significant inhibition
~10	C#Cc1cccc(Nc2ncnc3cc(OCCOC)c(OCCOC)cc23)c1 [erlotinib, reference compound]	~10	–	–	–	little inhibition

From article PMC2931832 (ACS medicinal chemistry letters, 2010)
